What was measured:
Type in all cases: biochemical
[1] = biological target: T1, catalytic domain of neutrophil collagenase (MMP-8) (Homo sapiens, UniProt P22894); assay: Enzymatic activity of the catalytic domain of neutrophil collagenase (MMP-8), fluorogenic substrate
T1 construct: catalytic domain of human stromelysin (MMP-3) and of neutrophil collagenase (MMP-8); made in house
Method: (§1) Preparation and determination of the enzymatic activity of the catalytic domain of human stromelysin (MMP-3) and of neutrophil collagenase (MMP-8). The two enzymes stromelysin (MMP-3) and neutrophil collagenase (MMP-8) were prepared by the method of Ye et al. (Biochemistry; 31 (1992) pages 11 231-11 235). The enzymic activity or the effect of the enzyme inhibitor was measured by incubating 10 μl of enzyme solution with 10 μl of a 3% strength (v/v) buffered dimethyl sulfoxide solution which contained the enzyme inhibitor where appropriate, for 15 minutes. After addition of 10 μl of a 3% strength (v/v) aqueous dimethyl sulfoxide solution which contained 1 mmol/l of the substrate, the enzymic reaction was followed by fluorescence spectroscopy (328 nm (ex)/393 nm(em)).
(§2) The enzymic activity is presented as increase in extinction/minute. The IC50 values listed in Table 2 were determined as the inhibitor concentrations leading in each case to 50% inhibition of the enzyme.
(§3) The buffer solution contained 0.05% Brij (Sigma, Deisenhofen, Germany) and 0.1 mol/l Tris/HCl, 0.1 mol/l NaCl, 0.01 mol/l CaCl2 and 0.1 mol/l piperazine-N,N′-bis[2-ethanesulfonic acid] (pH=7.5).
(§4) The MMP-3 enzyme solution contained 2.3 μg/ml and the MMP-8 enzyme solution 0.6 μg/ml of one of the enzyme domains prepared by the method of Ye et al. The substrate solution contained 1 mmol/l of the fluorogenic substrate (7-methoxycoumarin-4-yl)acetyl-Pro-Leu-Gly-Leu-3-(2′,4′-dinitrophenyl)-L-2,3-diaminopropionyl-Ala-Arg-NH2 (Bachem, Heidelberg, Germany).

[2] = biological target: T2, catalytic domain of human stromelysin (MMP-3) (Homo sapiens, UniProt P08254); assay: Enzymatic activity of the catalytic domain of human stromelysin (MMP-3), fluorogenic substrate
T2 construct: Preparation and determination of the enzymatic activity of the catalytic domain of human stromelysin (MMP-3); made in house
Method: as §1, §2, §3, §4

[3] = biological target: catalytic domain of human gelatinase-A (MMP-9) (Homo sapiens, UniProt P14780); assay: Enzymatic activity of the catalytic domain of human gelatinase-A (MMP-9), fluorogenic substrate
Method: Determination of the Enzymatic Activity of the Catalytic Domain of Human Gelatinase-A (MMP-9)
Activation of the proenzyme:
2 parts by volume of proenzyme were incubated with 1 part by volume of APMA solution at 37° C. for 4 hours. The APMA solution was prepared from a 10 mmol/l p-aminophenylmercuric acetate solution in 0.1 mmol/l NaOH by dilution with 3 parts by volume of Tris/HCl buffer pH 7.5 (see below). The pH was adjusted to between 7.0 and 7.5 by adding 1 mmol/l HCl. After activation of the enzyme it was diluted with the Tris/HCl buffer to a concentration of 4.2 mU/ml.
The enzymic activity was measured by incubating 10 μl of enzyme solution with 10 μl of a 3% strength (v/v) buffered dimethyl sulfoxide solution (reaction 1) for 15 minutes. The enzyme inhibitor activity was measured by incubating 10 μl of enzyme solution with 10 μl of a 3% strength (v/v) buffered dimethyl sulfoxide solution which contained the enzyme inhibitor (reaction 2).
The enzymic reaction both in the case of reaction 1 and in the case of reaction 2 was followed after addition of 10 μl of a 3% strength (v/v) aqueous dimethyl sulfoxide solution which contained 0.15 mmol/l of the substrate by fluorescence spectroscopy (328 nm (extinction)/393 nm (emission)).
The enzymic activity has been presented as increase in extinction/minute.
The effect of the inhibitor was calculated as percentage inhibition by the following formula: % inhibition=100−[(increase in extinction/minute in reaction 2)/(increase in extinction/minute in reaction 1)×100].
The IC50, which is the concentration of inhibitor which is necessary for 50% inhibition of the enzymic activity, was determined graphically by plotting the percentage inhibitions at various inhibitor concentrations.
The buffer solution contained 0.05% Brij (Sigma, Deisenhofen, Germany) and 0.1 mol/l Tris/HCl, 0.1 mol/l NaCl, 0.01 mol/l CaCl2 (pH=7.5). The enzyme solution contained 4.2 mU/ml of the enzyme domain. The substrate solution contained 0.15 mmol/l of the fluorogenic substrate (7-methoxycoumarin-4-yl)acetyl-Pro-Leu-Gly-Leu-3-(2′,4′-dinitrophenyl)-L-2,3-diaminopropionyl-Ala-Arg-NH2 (Bachem, Heidelberg, Germany).

T1 sequence (P22894 100-262 limits assumed): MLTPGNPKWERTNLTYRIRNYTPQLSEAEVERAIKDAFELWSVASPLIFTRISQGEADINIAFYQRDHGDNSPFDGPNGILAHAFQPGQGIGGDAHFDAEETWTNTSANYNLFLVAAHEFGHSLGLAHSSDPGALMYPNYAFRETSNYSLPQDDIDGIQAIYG
Chain of catalytic domain of human gelatinase-A (MMP-9) (P14780 107-444 limits assumed): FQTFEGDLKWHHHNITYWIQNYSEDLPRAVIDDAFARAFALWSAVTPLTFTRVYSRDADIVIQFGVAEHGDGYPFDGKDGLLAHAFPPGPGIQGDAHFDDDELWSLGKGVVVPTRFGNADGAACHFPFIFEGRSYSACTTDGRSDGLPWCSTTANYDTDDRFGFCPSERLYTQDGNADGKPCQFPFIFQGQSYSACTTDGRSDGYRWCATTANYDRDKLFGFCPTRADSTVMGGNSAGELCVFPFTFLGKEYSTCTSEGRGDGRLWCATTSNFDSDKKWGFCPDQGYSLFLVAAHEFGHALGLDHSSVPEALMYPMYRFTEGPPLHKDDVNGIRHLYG
T2 sequence (P08254 100-272 limits assumed): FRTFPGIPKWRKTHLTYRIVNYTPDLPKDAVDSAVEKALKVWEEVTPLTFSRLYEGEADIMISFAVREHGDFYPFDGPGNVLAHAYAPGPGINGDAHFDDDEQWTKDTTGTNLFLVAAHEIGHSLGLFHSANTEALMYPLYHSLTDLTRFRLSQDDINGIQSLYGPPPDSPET

IC50 [1]	IC50 [2]	IC50 [3]	SMILES
54 nM	3500 nM	2200 nM	O=C(O)C1C2CCOC2CCN1S(=O)(=O)c1ccc(-c2ccc(Cl)cc2)cc1 (stereo not drawn) [Example 6, 5-(4′-chlorobiphenyl-4-sulfonyl)octahydrofuro[3,2-c]pyridine-4-carboxylic acid]
2.4 nM	29 nM	2.4 nM	O=C(NO)C1C2CCOC2CCN1S(=O)(=O)c1ccc(-c2ccc(Cl)cc2)cc1 (stereo not drawn) [Example 7, 5-(4′-chlorobiphenyl-4-sulfonyl)octahydrofuro[3,2-c]pyridine-4-(N-hydroxy)-carboxamide]
1 nM	13 nM	1.5 nM	O=C(NO)[C@H]1[C@H]2CCO[C@H]2CCN1S(=O)(=O)c1ccc(-c2ccc(Cl)cc2)cc1 [Example 8]
170 nM	1100 nM	120 nM	O=C(NO)[C@@H]1[C@@H]2CCO[C@@H]2CCN1S(=O)(=O)c1ccc(-c2ccc(Cl)cc2)cc1 [Example 9]
410 nM	> 10000 nM	2500 nM	O=C(O)C1C2CCOC2CCN1S(=O)(=O)c1ccc(Oc2ccc(F)cc2)cc1 (stereo not drawn) [Example 10, 5-[4-(4-fluorophenoxy)benzenesulfonyl]octahydrofuro[3,2-c]pyridine-4-carboxylic acid]
6 nM	34 nM	3 nM	O=C(NO)C1C2CCOC2CCN1S(=O)(=O)c1ccc(Oc2ccc(F)cc2)cc1 (stereo not drawn) [Example 11, 5-[4-(4-fluorophenoxy)benzenesulfonyl]octahydrofuro[3,2-c]pyridine-4-(N-hydroxy)-carboxamide]
2 nM	14 nM	1.3 nM	O=C(NO)[C@H]1[C@H]2CCO[C@H]2CCN1S(=O)(=O)c1ccc(Oc2ccc(F)cc2)cc1 [Example 12]
150 nM	1500 nM	150 nM	O=C(NO)[C@@H]1[C@@H]2CCO[C@@H]2CCN1S(=O)(=O)c1ccc(Oc2ccc(F)cc2)cc1 [Example 13]
24 nM	27 nM	2 nM	O=C(NO)C1C2CCOC2CCN1S(=O)(=O)c1ccc(Oc2ccc(Cl)cc2)cc1 (stereo not drawn) [Example 18, 5-[4-(4-chlorophenoxy)benzenesulfonyl]octahydrofuro[3,2-c]pyridine-4-(N-hydroxy)-carboxamide]
2 nM	17 nM	8 nM	N#Cc1ccc(Oc2ccc(S(=O)(=O)N3CC[C@@H]4OCC[C@@H]4[C@@H]3C(=O)NO)cc2)cc1 [Example 21]
2 nM	15 nM	5 nM	CS(=O)(=O)c1ccc(Oc2ccc(S(=O)(=O)N3CC[C@@H]4OCC[C@@H]4[C@@H]3C(=O)NO)cc2)cc1 [Example 23]
